Test results: EPA's ToxRefDB 2

Legend:
rat [1] = details: Sub-acute repeat dose toxicity, fischer, Oral, Gavage/Intubation, dose end: 14 day, group: systemic
mouse [2] = details: Sub-acute repeat dose toxicity, b6c3f1, Oral, Gavage/Intubation, dose end: 14 day, group: systemic
rat [3] = details: Multigenerational reproductive toxicity study; sprague dawley; Oral; Gavage/Intubation; dose end: 2 generation; group: parental; systemic / organ weight / liver / nos
rabbit [4] = details: Prenatal developmental toxicity study, new zealand white, Oral, Gavage/Intubation, dose end: 19 GD
rat [5] = details: Prenatal developmental toxicity study, sprague dawley, Oral, Gavage/Intubation, dose end: 15 GD
rat [6] = details: Subchronic oral toxicity in rodents, fischer, Gavage/Intubation, dose end: 13 week, group: systemic
rat [7] = details: Sub-acute dermal toxicity, sprague dawley, Topical, dose end: 28 day, group: systemic
mouse [8] = details: Subchronic oral toxicity in rodents, b6c3f1, Gavage/Intubation, dose end: 13 week, group: systemic
rat [9] = details: Prenatal developmental toxicity study, sprague dawley, Oral, Gavage/Intubation, dose end: 15 GD; remark: listed apart in the source
dog = details: Carcinogenicity; beagle; Oral; Capsule; dose end: 109 month; group: systemic; systemic / pathology microscopic / urinary bladder / carcinoma + systemic / clinical chemistry / alanine aminotransferase (alt/sgpt) / …
rat [10] = details: Developmental neurotoxicity study; long evans; Inhalation; Whole-Body; dose end: 160 PND; group: cannot be grouped; systemic / in life observation / body weight / body weight + developmental / developmental landmark / vaginal opening / vaginal opening + …
rat [11] = details: Developmental neurotoxicity study, wistar, Oral, Water, dose end: 45 PND, group: cannot be grouped
mouse [12] = details: Sub-acute repeat dose toxicity, b6c3f1, Oral, Water, dose end: 14 day, group: systemic
rat [13] = details: Prenatal developmental toxicity study; other; Oral; Water; dose end: 15 GD; group: maternal; systemic / in life observation / body weight / body weight gain + systemic / in life observation / water consumption / water consumption
rat [14] = details: Subchronic oral toxicity in rodents, fischer, Water, dose end: 6 month, group: systemic
rabbit [15] = details: Prenatal developmental toxicity study; new zealand white; Oral; Water; dose end: 19 GD; group: maternal; systemic / in life observation / body weight / body weight gain + systemic / in life observation / food consumption / food consumption + …
mouse [16] = details: Subchronic oral toxicity in rodents, B6C3F1, Water, dose end: 6 month, group: systemic
mouse [17] = details: Combined chronic toxicity/carcinogenicity; b6c3f1; Oral; Water; dose end: 103 week; group: systemic; systemic / clinical chemistry / flouride / fluoride + systemic / in life observation / clinical signs / tooth-attrition + systemic / in life…
rat [18] = details: Combined chronic toxicity/carcinogenicity; fischer; Oral; Water; dose end: 103 week; group: systemic; systemic / clinical chemistry / flouride / fluoride + systemic / in life observation / clinical signs / tooth-mottling + systemic / in life …
rat [19] = details: Multigenerational reproductive toxicity study, CD CRL:CD-BR, Oral, Water, dose end: 2 generation
rat [20] = details: Carcinogenicity, sprague dawley, Oral, Feed, dose end: 24 month, group: systemic
rat [21] = details: Prenatal developmental toxicity study, other, Oral, Water, dose end: 20 GD, group: maternal
rat [22] = details: Sub-acute repeat dose toxicity, fischer, Oral, Water, dose end: 14 day, group: systemic
[23] = systemic / in life observation / body weight / body weight gain
[24] = systemic / in life observation / body weight / body weight
[25] = systemic / in life observation / body weight / body weight + systemic / in life observation / clinical signs / fur (altered appearance) + …
[26] = group: developmental, developmental / developmental malformation / bone / absent + developmental / developmental malformation / bone / malpositioned + …
[27] = group: maternal, systemic / in life observation / body weight / body weight gain + systemic / in life observation / food consumption / food consumption
[28] = group: maternal, systemic / in life observation / body weight / body weight gain + systemic / in life observation / food consumption / food consumption + …
[29] = group: developmental, systemic / in life observation / body weight / fetal weight
[30] = systemic / in life observation / body weight / body weight + systemic / in life observation / clinical signs / defecation (diarrhea)
[31] = systemic / in life observation / body weight / body weight gain + systemic / in life observation / clinical signs / erythema + systemic / in…
[32] = systemic / in life observation / clinical signs / erythema + systemic / pathology microscopic / skin / edema + systemic / in life …
[33] = systemic / pathology microscopic / liver / degeneration
[34] = systemic / pathology microscopic / liver / degeneration + systemic / in life observation / body weight / body weight + systemic / in life …
[35] = group: developmental, developmental / developmental malformation / bone / supernumerary + systemic / in life observation / body weight / fetal weight
[36] = group: maternal, systemic / in life observation / clinical signs / body surface staining + systemic / in life observation / clinical signs / salivation + …
[37] = systemic / clinical chemistry / dopamine / dopamine + systemic / clinical chemistry / protein / protein + systemic / in life observation / …
[38] = systemic / pathology gross / stomach / hemorrhage + systemic / pathology gross / stomach / ulcer + systemic / pathology microscopic / …
[39] = group: offspring, systemic / in life observation / clinical signs / tooth nos
[40] = group: parental, systemic / in life observation / water consumption / water consumption + systemic / pathology microscopic / stomach / hyperkeratosis + …
[41] = systemic / in life observation / clinical signs / tooth-dysplasia + systemic / in life observation / clinical signs / tooth-discolored + …
[42] = systemic / organ weight / [other] / absolute + systemic / organ weight / [other] / relative to body weight + systemic / organ weight / …
[43] = systemic / in life observation / body weight / body weight gain + systemic / in life observation / food consumption / food consumption + …
[44] = systemic / in life observation / body weight / body weight + systemic / in life observation / clinical signs / dehydration + systemic / in …

Work on `O=S(=O)([O-])[O-].OC[P+](CO)(CO)CO.OC[P+](CO)(CO)CO` [Tetrakis(hydroxymethyl)phosphonium sulfate] yielded an LOAEL (rat [1]; systemic / in life observation / body weight / body weight + systemic / in life observation / body weight / body weight gain) of 25 mg/kg/day, an NOAEL (rat [1]; systemic / in life observation / body weight / body weight + systemic / in life observation / body weight / body weight gain + systemic / in…) of 12.5 mg/kg/day and an LEL (rat [1]; [23]) of 25 mg/kg/day. For the same molecule, the NEL (rat [1]; systemic / in life observation / body weight / body weight gain + systemic / in life observation / mortality / mortality) was 12.5 mg/kg/day, the LEL (mouse [2]; [24]) was 25 mg/kg/day and the LOAEL (mouse [2]; [24]) was 50 mg/kg/day. It also gave an NEL (mouse [2]; [25]) of 12.5 mg/kg/day, an NOAEL (mouse [2]; [25]) of 25 mg/kg/day and an LEL (rat [3]) of 15 mg/kg/day. It also gave an LOAEL (rat [3]) of over 15 mg/kg/day, an NEL (rat [3]) of 7.5 mg/kg/day and an NOAEL (rat [3]) of at least 15 mg/kg/day. It also gave an LEL (rabbit [4]; [26]) of 60 mg/kg/day, an LOAEL (rabbit [4]; [26]) of 60 mg/kg/day and an NEL (rabbit [4]; [26]) of 18 mg/kg/day. The NOAEL (rabbit [4]; [26]) was 18 mg/kg/day, the LOAEL (rabbit [4]; [27]) was 60 mg/kg/day and the LEL (rabbit [4]; [28]) was 60 mg/kg/day. It also gave an NEL (rabbit [4]; [28]) of 18 mg/kg/day, an NOAEL (rabbit [4]; [28]) of 18 mg/kg/day and an LEL (rat [5]; [29]) of 60 mg/kg/day. It also gave an LOAEL (rat [5]; [29]) of 60 mg/kg/day, an NEL (rat [5]; [29]) of 30 mg/kg/day and an NOAEL (rat [5]; [29]) of 30 mg/kg/day. The LEL (rat [5]; [27]) was 60 mg/kg/day, the LOAEL (rat [5]; [27]) was 60 mg/kg/day and the NEL (rat [5]; [28]) was 30 mg/kg/day. The NOAEL (rat [5]; [28]) was 30 mg/kg/day, the LEL (rat [6]; [30]) was 5 mg/kg/day and the NEL (rat [6]; [30]) was under 5 mg/kg/day. It also gave an NOAEL (rat [6]; systemic / in life observation / body weight / body weight + systemic / in life observation / clinical signs / defecation (diarrhea) + …) of 20 mg/kg/day, an LOAEL (rat [6]; systemic / in life observation / body weight / body weight + systemic / pathology microscopic / liver / degeneration) of 40 mg/kg/day and an LOAEL (rat [7]; [31]) of over 500 mg/kg/day. The NOAEL (rat [7]; [31]) was at least 500 mg/kg/day, the LEL (rat [7]; [32]) was 25 mg/kg/day and the NEL (rat [7]; [32]) was under 25 mg/kg/day. For the same molecule, the LEL (mouse [8]; [33]) was 20 mg/kg/day, the LOAEL (mouse [8]; [33]) was 20 mg/kg/day and the NEL (mouse [8]; [34]) was 10 mg/kg/day. The NOAEL (mouse [8]; [34]) was 10 mg/kg/day, the LEL (rat [9]; [35]) was 60 mg/kg/day and the LOAEL (rat [9]; [35]) was 60 mg/kg/day. The NEL (rat [9]; [35]) was 30 mg/kg/day, the NOAEL (rat [9]; [35]) was 30 mg/kg/day and the LEL (rat [9]; [36]) was 30 mg/kg/day. It also gave an LOAEL (rat [9]; [36]) of 30 mg/kg/day, an NEL (rat [9]; [36]) of 15 mg/kg/day and an NOAEL (rat [9]; [36]) of 15 mg/kg/day.

In the case of `Nc1ccc2ccccc2c1` [2-Naphthylamine], the LEL (dog) is reported as 18.4 mg/kg/day, the LOAEL (dog) is reported as over 18.4 mg/kg/day and the NEL (dog) is reported as under 18.4 mg/kg/day. The NOAEL (dog) was at least 18.4 mg/kg/day.

With `CO` [Methanol] the LEL (rat [10]) was 6110 mg/kg/day, the LOAEL (rat [10]) was over 6110 mg/kg/day and the NEL (rat [10]) was under 6110 mg/kg/day. The NOAEL (rat [10]) was at least 6110 mg/kg/day, the LOAEL (rat [11]; [37]) was over 2000 mg/kg/day and the NEL (rat [11]; [37]) was 500 mg/kg/day. The NOAEL (rat [11]; [37]) was at least 2000 mg/kg/day and the LEL (rat [11]; systemic / clinical chemistry / protein / protein + systemic / clinical chemistry / dopamine / dopamine + systemic / in life observation / …) was 1000 mg/kg/day.

`[F-].[Na+]` [Sodium fluoride] was tested, and the LOAEL (mouse [12]; [24]) was 7.5 mg/kg/day, the NOAEL (mouse [12]; [24]) was under 7.5 mg/kg/day and the NEL (mouse [12]; systemic / in life observation / body weight / body weight + systemic / in life observation / water consumption / water consumption) was 60 mg/kg/day. It also gave an LEL (mouse [12]; systemic / in life observation / body weight / body weight + systemic / in life observation / water consumption / water consumption + …) of 120 mg/kg/day, an LEL (rat [13]) of 27 mg/kg/day and an LOAEL (rat [13]) of over 27 mg/kg/day. It also gave an NEL (rat [13]) of 18 mg/kg/day, an NOAEL (rat [13]) of at least 27 mg/kg/day and an LOAEL (rat [14]; [38]) of 15 mg/kg/day. The NEL (rat [14]; [38]) was 1.5 mg/kg/day, the NOAEL (rat [14]; [38]) was 5 mg/kg/day and the LEL (rat [14]; systemic / pathology microscopic / stomach / hyperplasia) was 5 mg/kg/day. The LEL (rabbit [15]) was 29 mg/kg/day, the LOAEL (rabbit [15]) was over 29 mg/kg/day and the NEL (rabbit [15]) was 18 mg/kg/day. For the same molecule, the NOAEL (rabbit [15]) was at least 29 mg/kg/day, the LOAEL (mouse [16]; [23]) was 30 mg/kg/day and the NOAEL (mouse [16]; systemic / in life observation / body weight / body weight gain + systemic / in life observation / clinical signs / [other] + systemic / in …) was 15 mg/kg/day. For the same molecule, the NEL (mouse [16]; systemic / in life observation / body weight / body weight gain + systemic / pathology microscopic / bone / proliferation + systemic / in …) was 1.5 mg/kg/day, the LEL (mouse [16]; systemic / pathology microscopic / bone / proliferation) was 7.5 mg/kg/day and the LEL (mouse [17]) was 2.4 mg/kg/day. For the same molecule, the LOAEL (mouse [17]) was 2.4 mg/kg/day, the NEL (mouse [17]) was under 2.4 mg/kg/day and the NOAEL (mouse [17]) was under 2.4 mg/kg/day. It also gave an LEL (rat [18]) of 1.3 mg/kg/day, an LOAEL (rat [18]) of 1.3 mg/kg/day and an NEL (rat [18]) of under 1.3 mg/kg/day. For the same molecule, the NOAEL (rat [18]) was under 1.3 mg/kg/day, the LEL (rat [19]; [39]) was 12.5 mg/kg/day and the LOAEL (rat [19]; [39]) was over 12.5 mg/kg/day. It also gave an NEL (rat [19]; [39]) of 8.75 mg/kg/day, an NOAEL (rat [19]; [39]) of at least 12.5 mg/kg/day and an LOAEL (rat [19]; [40]) of over 12.5 mg/kg/day. It also gave an NEL (rat [19]; [40]) of 1.25 mg/kg/day, an NOAEL (rat [19]; [40]) of at least 12.5 mg/kg/day and an LEL (rat [19]; group: parental, systemic / pathology microscopic / stomach / hyperkeratosis + systemic / in life observation / water consumption / water consumption) of 5 mg/kg/day. For the same molecule, the LEL (rat [20]; [41]) was 4 mg/kg/day, the NEL (rat [20]; [41]) was under 4 mg/kg/day and the LOAEL (rat [20]; [42]) was over 25 mg/kg/day. For the same molecule, the NOAEL (rat [20]; [42]) was at least 25 mg/kg/day, the LOAEL (rat [21]; [43]) was over 25.1 mg/kg/day and the NEL (rat [21]; [43]) was 15.6 mg/kg/day. It also gave an NOAEL (rat [21]; [43]) of at least 25.1 mg/kg/day, an LEL (rat [21]; systemic / in life observation / water consumption / water consumption) of 24.7 mg/kg/day and an LOAEL (rat [22]; [24]) of 5 mg/kg/day. It also gave an LEL (rat [22]; [44]) of 20 mg/kg/day, an NEL (rat [22]; [44]) of 10 mg/kg/day and an NOAEL (rat [22]; [44]) of 2.5 mg/kg/day.
